Biological target: T1, glucokinase (Homo sapiens, UniProt P35557)
T1 sequence (P35557 1-466 isoform P35557-2): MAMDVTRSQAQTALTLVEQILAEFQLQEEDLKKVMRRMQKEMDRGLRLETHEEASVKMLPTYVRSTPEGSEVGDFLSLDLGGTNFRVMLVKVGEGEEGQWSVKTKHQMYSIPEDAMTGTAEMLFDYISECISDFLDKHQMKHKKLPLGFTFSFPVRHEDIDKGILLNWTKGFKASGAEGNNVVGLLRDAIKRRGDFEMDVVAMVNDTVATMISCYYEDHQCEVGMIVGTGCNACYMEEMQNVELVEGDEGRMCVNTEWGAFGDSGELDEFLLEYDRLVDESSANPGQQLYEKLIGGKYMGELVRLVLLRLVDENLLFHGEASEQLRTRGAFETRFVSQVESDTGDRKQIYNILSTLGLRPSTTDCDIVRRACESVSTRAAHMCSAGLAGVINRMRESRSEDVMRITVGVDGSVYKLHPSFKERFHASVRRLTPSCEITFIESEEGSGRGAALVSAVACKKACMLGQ
Test: glucokinase activity assay of compounds found by pharmacophore screening (activation relative to control)
Format: biochemical
Settings: glucose 2.5 M, ligand 10 μM; activity of glucokinase is 100% in the case of control
Excerpt: Library compounds were screened using, as research conditions, pharmacophore of a hydrogen bond acceptor and hydrogen bond donor generated respectively from NH and CO of a main chain of Arg63, hydrophobic pharmacophore formed in a space corresponding to a phenyl group of an aniline part of a ligand forming a complex, and the protein surface made based on the structure of a protein, by using a software UNITY (manufactured by Tripos), and the following compound 4 and compound 5 were obtained and assayed, to confirm activities of 780% and 560%. An activity of 780% means that when the activity of glucokinase is 100% in the case of control, the activity is enhanced up to 780% by these compound (using glucose 2.5 M, and ligand 10 μM). [drawing 15]

Row | activity of glucokinase (control = 100%) | SMILES
1 | 780% | Nc1ccc(Oc2ccccc2)cc1C(=O)Nc1nccs1 [compound 4]
2 | 560% | CCOC(=O)c1csc(NC(=O)c2cc(Sc3ccncc3)ccc2N)n1 [compound 5]

From patent US20070231874A1, “Crystal of glucokinase protein, and method for drug design using the crystal” (priority 2002, published 2007)
